Measured values taken from US9539261B2, “Methods and compositions for stimulating neurogenesis and inhibiting neuronal degeneration” (Neuronascent, Inc., priority 2005, dated 2017).

Columns and labels:
mature neurons [1] = experiment: inhibition of beta amyloid peptide toxicity in mature neurons; type: cell-based, human
Protocol: In measuring the ability of inhibiting apoptosis, mature neurons (3-4 weeks following initiation of differentiation) were treated with staurosporine to induce apoptosis. A low concentration of staurosporine (10-100 nM) or beta amyloid 1-42 peptide at 1-10 μM or peptide beta amyloid 25-35 at 10-75 μM concentration was used to stimulate apoptosis. At the same time as treating with staurosporine, the neurons were treated with vehicle or one of the test agents. […] Each compound's inhibitory ability was compared with vehicle and staurosporine.
Necrosis of the mature neurons was initiated using beta amyloid 1-42 peptide at 1-10 μM or peptide beta amyloid 25-35 at 10-75 μM concentration. This synthetic peptide was of the same length naturally found in AD brain. Because lactate dehydrogenase (LDH) is released from cells when the plasma membrane is impaired, the cell loss was quantified by the amount of LDH released into the media following a 24-48 hr treatment. The ability of neurogenic agents to reduce the LDH release induced by beta amyloid, versus vehicle control was used as the measurement of inhibition of neuron degeneration.

[2] = tested on: human neuronal progenitors cells; experiment: in vitro neurogenesis test (MAP-2 staining, neuron number); type: cell-based; settings: MAP-2 staining on day 11; human neuronal progenitors in differentiation media
Protocol: The in vitro neurogenesis test was performed using human neuronal progenitors cells. By way of background, the human neuronal progenitor cells can be cultured in media and have the potential to produce mature functional neurons. The neurogenesis factor in the culture media can promote the number of the progenitor cells which differentiate into neurons. Indeed, it is a widely accepted in vitro model to test a chemical's neurogenetic property.
Cells were obtained as human neuronal progenitors from a commercial source and were grown for up to three passages or at any time differentiated to potentially produce mature functional neurons in culture. Following two passages to expand the cells, progenitors were seeded into multi-well microplates and the media were changed to differentiation media (minus serum and mitogen). Within 2 hrs of this media change, a vehicle, positive control or test compound were added to each well. Also, they were added with every further media change (50% volume change every other day). Control wells contained cells and vehicle (0.2% DMSO in DMEM/F12). […]
The cells were stained using MAP-2, a neuronal marker, on day 11. Then, each test compound was assessed for the ability to promote an increase in neuron number and compared with the positive control, leukemia inhibitory factor (LIF).

mature neurons [3] = experiment: LDH assay of neuron degeneration due to hydrogen peroxide toxicity; type: cell-based, human; settings: hydrogen peroxide for 8 hrs, vehicle control = 0% inhibition, n = 5 wells

Molecule: 4-Benzo-8-aza-bicyclo[3.2.1]oct-3-yl)-3-(2-chloro-phenyl)-thiourea
- % Inhibition of beta amyloid peptide toxicity (mature neurons [1]): 68%

Molecule: COCCN(Cc1cc2ccc(C)c(C)c2nc1Cl)C(=O)Nc1ccccc1OC [1-(2-Chloro-7,8-dimethyl-quinolin-3-ylmethyl)-1-(2-methoxy-ethyl)-3-(2-methoxy-phenyl)-urea]
- increase in the neuron numbers compared with the vehicle control, % of Control [2]: 132 % of Control

Molecule: COc1ccccc1NC(=S)N1CCCN(c2nc3cc(C)cc(C)c3cc2C#N)CC1 [4-(3-Cyano-5,7-dimethyl-quinolin-2-yl)-[1,4]diazepane-1-carbothioic acid (2-methoxy-phenyl)-amide]
- increase in the neuron numbers compared with the vehicle control, % of Control [2]: 110 % of Control
- % Inhibition of neuron degeneration due to hydrogen peroxide toxicity (mature neurons [3]): 50%
- % Inhibition of beta amyloid peptide toxicity (mature neurons [1]): 84%
